Paper PMC5045260 (Phytotherapy research : PTR, 2016)
pIC50: −log10 of the molar value.

Tests used:
c-Met [1] = target: T1, c-Met (Homo sapiens, UniProt P08581); assay: Z'-LYTE Tyr6 peptide kinase assay, […] ATP, purified c-Met kinase domain; format: biochemical
c-Met [2] = target: T1, c-Met; assay: Z'-LYTE Tyr6 peptide kinase assay, single concentration; format: biochemical

T1 sequence (P08581 956-1390 limits assumed): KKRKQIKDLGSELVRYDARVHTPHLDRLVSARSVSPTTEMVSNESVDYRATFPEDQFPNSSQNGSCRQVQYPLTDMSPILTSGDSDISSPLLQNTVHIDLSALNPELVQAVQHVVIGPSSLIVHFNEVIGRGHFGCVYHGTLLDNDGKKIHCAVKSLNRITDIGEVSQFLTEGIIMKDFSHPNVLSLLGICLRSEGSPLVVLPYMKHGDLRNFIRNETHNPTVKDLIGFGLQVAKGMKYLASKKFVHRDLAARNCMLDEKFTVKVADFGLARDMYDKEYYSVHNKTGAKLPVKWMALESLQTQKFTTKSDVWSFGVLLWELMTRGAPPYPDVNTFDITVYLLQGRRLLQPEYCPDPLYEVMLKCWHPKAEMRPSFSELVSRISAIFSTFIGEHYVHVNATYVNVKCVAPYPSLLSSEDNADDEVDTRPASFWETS

Row | pIC50 (c-Met [1]) | Structure (SMILES) | Z'-LYTE Tyr6 peptide kinase assay, single concentration (53% reduction at 5 μM), (c-Met [2]) [% reduction at 5]
1 | 5.19 | Cc1cc(O)c(C=O)c2c1C(=O)Oc1c(C)c(O)c3c(c1O2)C(O)OC3=O (centres unmarked) [norstictic acid] | –
2 | – | C/C=C(/C=O)[C@@H](CC=O)CC(=O)OCCc1ccc(O)cc1 [oleocanthal] | 53
